In PubChem BioAssay (NCI):
“And” between values parts separate entries of the source, which are not always exact repeats. Equal values may be shown once.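 A five-concentration, 48-hour dose response in 96-well plates underlies each endpoint, interpolated linearly between surrounding concentrations. GI50 = concentration required for 50% inhibition of growth. Definition used: TGI = concentration required for complete inhibition of growth.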

Tests used:
Assay in all cases: inhibition of tumour cell growth, NCI panel, 48 h
[1] = system: UO-31 renal
[2] = system: HT29 colon
[3] = system: HCC-2998 colon
[4] = system: SF-268 CNS
[5] = system: HCT-116 colon
[6] = system: KM12 colon
[7] = system: K-562 leukemia
[8] = system: OVCAR-5 ovarian
[9] = system: SK-MEL-2 melanoma

| SMILES | TGI [1] | TGI [2] [µM] | TGI [3] [µM] | TGI [4] [µM] | TGI [5] | TGI [6] [µM] | TGI [7] [µM] | TGI [8] [µM] | TGI [9] | GI50 [1] | GI50 [2] | GI50 [3] [µM] | GI50 [4] | GI50 [5] [µM] | GI50 [6] [µM] | GI50 [9] | GI50 [7] | GI50 [8] [µM] |
| --- | --- | --- | --- | --- | --- | --- | --- | --- | --- | --- | --- | --- | --- | --- | --- | --- | --- | --- |
| COC(=O)C(C(=O)C(=O)Nc1nc2ccc(OC)cc2s1)c1cnc2ccccc2n1 (stereo not drawn) | > 100 µM | > 100 | > 100 | > 100 | > 100 µM | > 100 | > 100 | > 100 | – | – | – | – | – | – | – | – | – | – |
| NNC(=O)C(=O)N/N=C1\CCCC1C(=O)CCC(=O)Nc1cccc(Cl)c1 (stereo not drawn) | > 100 µM | > 100 | > 100 | > 100 | > 100 µM | > 100 | – | > 100 | > 100 µM | – | – | – | – | – | – | – | – | – |
| NC(=O)c1c(-c2ccccc2)c(-c2ccccc2)cc2c(=O)c3ccccc3[nH]c12 | 80.2 µM | 42.9 | > 100 | > 100 | 35.9 µM | 78.6 | > 100 | > 100 | 45.1 µM | – | – | – | – | – | – | – | – | – |
| CCCOC(=O)C1C(c2ccc(OC)cc2)NC(c2ccc(OC)cc2)C(C(=O)OCCC)S1(=O)=O (stereo not drawn) | > 100 µM | > 100 | > 100 | > 100 | > 100 µM | > 100 | > 100 | > 100 | > 100 µM | > 100 µM | > 100 µM | > 100 | > 100 µM | > 100 | > 100 | > 100 µM | > 100 µM | > 100 |
| CCCCCCCCCCCCNC(=S)OCCCC | > 100 µM | > 100 | > 100 | > 100 | > 100 µM | > 100 | > 100 | > 100 | 62.2 µM | – | – | – | – | – | – | – | – | – |
| COc1c(O)ccc(/C=N/NC(=S)NCOCCOC(C)=O)c1OC | > 100 µM | > 100 | > 100 | > 100 | > 100 µM | > 100 | > 100 | > 100 | > 100 µM | – | – | – | – | – | – | – | – | – |
| CC1Nc2ccccc2NC1C=C(C#N)C#N (stereo not drawn) | 28.3 µM | 36.9 | 32.8 | 29.9 | 26.8 µM | 31.9 | 48.5 | 33.4 | 37.7 µM | – | – | – | – | – | – | – | – | – |
| COc1ccc(C2=NC(CO)[C@H](c3ccccc3)O2)cc1OC (stereo partly drawn) | > 100 µM | > 100 | > 100 | > 100 | > 100 µM | > 100 | > 100 | > 100 | > 100 µM | – | – | – | – | – | – | – | – | – |
| NNC(=S)N/N=C(\c1nc2ccc(Cl)cc2[nH]c1=O)C(O)c1cccc([N+](=O)[O-])c1 (stereo not drawn) | > 100 µM | > 50.9 | > 100 | > 79.5 | > 31.6 µM | > 100 | > 70.2 | > 100 | > 100 µM | – | – | – | – | – | – | – | – | – |
| CC[C@@]1(O)C(=O)OCc2c1cc1n(c2=O)Cc2cc3c(N)c(OC)ccc3nc2-1 | 0.25 µM | > 100 | 0.373 | – | – | 2.24 | – | 0.842 | 1.47 µM | 0.0547 µM | 0.205 µM | 0.155 | 0.0152 µM | – | 0.292 | 0.439 µM | 0.152 µM | 0.0543 |
| C=CCN=C1NC(=O)C(CC(=O)Nc2ccc([N+](=O)[O-])cc2[N+](=O)[O-])S1 (stereo not drawn) | > 100 µM | > 100 | > 100 | > 100 | > 100 µM | > 100 | – | > 100 | > 100 µM | – | – | – | – | – | – | – | – | – |
| O=C1CC2=CCCC2O1 (stereo not drawn) | > 100 µM | > 100 | > 100 | > 100 | > 100 µM | > 100 | > 100 | – | > 100 µM | – | – | – | – | – | – | – | – | – |
| O=C1c2ccccc2C(=O)N1CCN(CCN1C(=O)c2ccccc2C1=O)Cc1ccccc1 | > 100 µM | – | – | > 100 | > 100 µM | > 100 | > 100 | – | > 100 µM | – | – | – | – | – | – | – | – | – |
| CC(=O)CC(=O)Nc1ccc(OS(N)(=O)=O)cc1 | > 100 µM | > 100 | > 100 | > 100 | > 100 µM | > 100 | > 100 | > 100 | > 100 µM | – | – | – | – | – | – | – | – | – |
| O=C1C=C(c2ccccc2)NC1(c1ccccc1)c1cc(-c2ccccc2)[nH]c1-c1ccccc1 (stereo not drawn) | > 100 µM | > 100 | > 100 | – | > 100 µM | > 100 | > 100 | – | > 100 µM | – | – | – | – | – | – | – | – | – |
| COc1cc(Br)c(/C=N/N=C(\N)NO)cc1OC | > 100 µM | 86.3 | 26.3 | 30.6 | 43.8 µM | > 100 | 47.3 | > 100 | > 100 µM | – | – | – | – | – | – | – | – | – |
| O=S(=O)(c1ccccc1)C1(C2(S(=O)(=O)c3ccccc3)CCN=N2)CCN=N1 (stereo not drawn) | > 100 µM | > 100 | > 100 | > 100 | > 100 µM | > 100 | > 100 | > 100 | > 100 µM | – | – | – | – | – | – | – | – | – |

| SMILES | TGI [1] | TGI [2] [µM] | TGI [3] [µM] | TGI [4] [µM] | TGI [5] | TGI [6] [µM] | TGI [7] [µM] | TGI [8] [µM] | TGI [9] | GI50 [1] | GI50 [2] | GI50 [3] [µM] | GI50 [4] | GI50 [5] [µM] | GI50 [6] [µM] | GI50 [9] | GI50 [7] | GI50 [8] [µM] |
| --- | --- | --- | --- | --- | --- | --- | --- | --- | --- | --- | --- | --- | --- | --- | --- | --- | --- | --- |
| O=[N+]([O-])C(=C1c2ccccc2-c2ccccc21)[N+](=O)[O-] | > 100 µM | > 100 | > 100 | 84.8 | > 100 µM | > 100 | > 100 | > 100 | > 100 µM | – | – | – | – | – | – | – | – | – |
| COc1cc(Br)c(C=Nc2cccc3ccc(OS(=O)(=O)c4ccc([N+](=O)[O-])cc4)cc23)cc1OC | > 100 µM | > 100 | > 100 | > 100 | > 100 µM | > 100 | – | > 100 | > 100 µM | – | – | – | – | – | – | – | – | – |
| Cc1ccccc1-c1cc(=O)c2cc(C)c(C)c(C(=O)O)c2o1 | > 100 µM | > 100 | > 100 | – | > 100 µM | > 100 | > 100 | > 100 | > 100 µM | – | – | – | – | – | – | – | – | – |
| COc1ccc(-c2cc(-c3ccco3)c(C#N)c(=O)n2C2OC(COC(C)=O)C(OC(C)=O)C(OC(C)=O)C2OC(C)=O)cc1 (stereo not drawn) | > 100 µM and 51.7 µM | > 100 | > 100 | > 100 | > 100 µM and 21.1 µM | > 100 | > 100 | > 100 | > 100 µM and 50.8 µM | 40.1 µM and 16.5 µM | > 100 µM and 28.6 µM | – | > 100 µM and 28.2 µM | – | – | > 100 µM and 14.5 µM | 48.1 µM and 8.84 µM | – |
| CC1(C)CCOC(Sc2ccccc2)C1 (stereo not drawn) | > 100 µM | – | > 100 | > 100 | > 100 µM | > 100 | > 100 | – | 69.9 µM | – | – | – | – | – | – | – | – | – |
| O=S(=O)([O-])c1ccc(C=Nc2ccccc2)c([O-])c1.O=S(=O)([O-])c1ccc(C=Nc2ccccc2)c([O-])c1.[Co+2] | > 100 µM | – | > 100 | > 100 | – | > 100 | > 100 | > 100 | > 100 µM | 21 µM | – | > 100 | 5.18 µM | – | 65.4 | 77.8 µM | 2.07 µM | 16.1 |
| COC(=O)N1C=CC2=C(C)C3Nc4ccccc4C3C(C)=C2C1 (stereo not drawn) | 3.88 µM | > 100 | 11.9 | 74.2 | 2.57 µM | – | 14.5 | > 100 | 2.95 µM | – | – | – | – | – | – | – | – | – |
| CC[P+](C)(C)CC | > 100 µM | > 100 | > 100 | > 100 | > 100 µM | > 100 | > 100 | > 100 | > 100 µM | – | – | – | – | – | – | – | – | – |
| CCOC(=O)C(c1ccsc1)P(=O)(OCC)OCC (stereo not drawn) | 28.4 µM | 39.7 | 33.8 | 69.6 | 25.7 µM | 28.4 | – | 37.7 | 39.9 µM | – | – | – | – | – | – | – | – | – |
| Nc1ncnc2c1ncn2C1(CO)OC(CO)C(O)C1O (stereo not drawn) | – | > 100 | > 100 | > 100 | > 100 µM | > 100 | – | > 100 | > 100 µM | – | – | – | – | – | – | – | – | – |
| CC(C)CC1CC2C(=O)N(c3ccccc3)C(=O)C2c2[nH]c3ccccc3c21 (stereo not drawn) | 79.9 µM | > 100 | > 31.6 | > 100 | 34 µM | > 100 | > 42.7 | > 100 | 59.8 µM | – | – | – | – | – | – | – | – | – |
| CN1C=C(C(N)=O)Cc2ccsc21 | > 100 µM | > 100 | > 100 | > 100 | > 100 µM | > 100 | > 100 | > 100 | > 100 µM | – | – | – | – | – | – | – | – | – |
| Oc1ccc(Br)cc1C=Nc1ccc(Oc2ccc(N=Cc3cc(Br)ccc3O)cc2)cc1 | > 19.6 µM | > 19.6 | > 19.6 | > 19.6 | > 19.6 µM | > 19.6 | > 19.6 | > 19.6 | > 19.6 µM | – | – | – | – | – | – | – | – | – |
| CN(C)c1ccc(-c2nc(N)nc3c2CCCC3)cc1 | > 100 µM | – | > 100 | > 100 | > 100 µM | > 100 | > 100 | > 100 | > 100 µM | – | – | – | – | – | – | – | – | – |
| N/N=C1\C(=O)N(c2ccc(Cl)c(Cl)c2)C(=O)C1C(=O)Nc1ccc(Cl)c(Cl)c1 (stereo not drawn) | 84 µM | > 100 | > 100 | > 100 | > 100 µM | > 100 | > 100 | > 100 | > 100 µM | – | – | – | – | – | – | – | – | – |
| Cc1ccc(C)c(NC(=O)C(=O)C(C2C(C)CC(=O)C2CC(=O)O)[N+](=O)[O-])c1 (stereo not drawn) | > 100 µM | > 100 | > 100 | > 100 | > 100 µM | > 100 | > 100 | > 100 | > 100 µM | – | – | – | – | – | – | – | – | – |
